The text below walks through data of patent publication US12325708B2, “Adenosine 2 receptor antagonists” (Nektar Therapeutics, priority 2019, dated 2025).

For orientation: AUC means concentration integrated over time. Lower therefore signals low exposure. Broadly, the bioavailability is the share of a dose that reaches the circulation, judged against a reference dose that is usually intravenous. A high value points to much systemic uptake. For orientation: Kp means the ratio of the level in a tissue or fluid to that in plasma or blood. What is called Ki is a measure of affinity in units of concentration, obtained from inhibition or displacement. As usually defined, the AUC(0-inf) is total exposure, with the tail of the curve extrapolated. Lower therefore signals low exposure. Usually AUC(0-t) stands for the area under the concentration-time curve up to a stated or last time point. Low readings indicate low exposure, high ones high exposure. By MRT last is commonly meant the average time that molecules of a dose stay in the body. As a reminder, the Cmax is the highest concentration seen after dosing. Usually Tmax stands for the time from dosing to the highest level.

Molecules are shown by their SMILES. Where two headings read alike, the source gives them in different places.

Data set [1] can be described thus: Plasma pharmacokinetic parameters following intravenous (IV) or oral (PO) administration in rats. In kind it is in vivo, Sprague-Dawley rats. Conditions: rat; for Cmax: read-out: Cmax; for Tmax: read-out: Tmax. The protocol:
Adult male Sprague-Dawley rats (230-250 g) (Charles River Labs, Hollister, CA) were utilized for the study. There were 2 rats/group. All animals were food fasted overnight with water provided ad libitum at all times. Compounds 1, 4, 14 and 19 were synthesized as described in Examples 2, 17, 7, and 12, respectively, and formulated in injectable water.
(§1) The morning of each dosing, individual doses were calculated based on current body weights on the day of dosing. The jugular vein cannula (JVC) and the carotid artery cannula (CAC) were externalized, flushed with HEP/saline (10 IU/mL HEP/mL saline), plugged, and labeled to identify the jugular vein and the carotid artery. The IV group animals were dosed at 0.5 mg/kg of Compound 1, 4, 14 or 19, respectively, intravenously via the jugular vein, while the PO dose was administered 2.5 mg/kg of Compound 1, 4, 14 or 19, respectively, orally via gavage. For the IV group, immediately following the dose of test article, the dead volume of the catheter was flushed with 0.9% saline to ensure the animals received the full dose.
Approximately 0.2 mL of blood was collected per time point from JVC. Blood samples were collected at 2 (IV group only), 5, 15, 30, 60, 120, 240, 360, 420 (Compound 19 only), 480, 720 (Compound 19 only), and 1440 minutes via the CAC and transferred immediately into K2EDTA coated tubes pre-loaded 2 μl with quenching cocktail and placed on wet ice. The samples were centrifuged within 30 min after collection at 10,000 RPM for 5 minutes and the resulting plasma was separated. Plasma was transferred into microfuge tubes and placed on dry ice immediately. The plasma samples were stored at approximately −70° C. until bioanalysis.
Plasma samples were extracted by protein precipitation with acetonitrile containing 0.1% formic acid and doxepin for Compound 1 (available from Sigma-Aldrich) or SCH58261 for Compounds 4, 14 and 19 (available from Sigma-Aldrich) as an internal standard. Following vortex and centrifugation, supernatant was diluted 3-fold with water containing 0.1% formic acid and analyzed by LC-MS/MS.
Pharmacokinetic parameters (PK) were determined by non-compartmental analysis (NCA) using Phoenix 64 WinNonlin (version 8) and Dotmatics (version 5.0). Nominal doses and time points were used for the analysis.
The following PK parameters were estimated using plasma concentration-time profile of each animal with the results presented in Table 3: • AUCinf Area under the concentration-time from zero to time infinity • AUClast Area under the concentration-time from zero to time of last concentration value • F Bioavailability • CL Total body clearance • Cmax Maximum (peak) concentration • MRTlast Mean residence time to last observable concentration • Tmax Time to reach maximum or peak concentration following administration • Vss Volume of distribution at steady state
Adult male Sprague-Dawley rats (230-250 g) (Charles River Labs, Hollister, CA) were utilized for the study. There were 2 rats/group. All animals were food fasted overnight with water provided ad libitum at all times. Compound 1 was synthesized as described in Example 2 and formulated in injectable water.
as §1, with “1” for “1, 4, 14 or 19, respectively,”
Approximately 0.2 mL of blood was collected per time point from JVC. […]

A short description of data set [2]: Brain-to-plasma ratio (B/P) after administration. The class given is in vivo, Sprague-Dawley rats. Conditions: Sprague-Dawley, rat, brain-to-plasma ratio at 1 h. The text has this: A similar unexpected result was obtained when the phenyl ring present on Compound 1 was replaced with a halogen substituted pyridine. The halogen was previously introduced on the phenyl ring with the aim of blocking a possible metabolic soft-spot, with similar results observed as for Compound 1 in terms of exposure, clearance and bioavailability (Compound 10 and Compound 15). The substituted pyridine ring was designed to modulate the lipophilicity and polar surface area, as well as to address metabolic soft-spot concerns. Clearance and bioavailability parameters remain similar between substituted phenyl and pyridine (Compound 4 and Compound 14) analogs, which span a range in cLogP of 2.7-3.2. It was therefore surprising the significant improvement in exposure and clearance observed for the more lipophilic Compound 19. […] A compound is commonly deemed to be a brain penetrant if the brain-to-blood/plasma concentration ratio (B/P) is greater than 0.04 using methods as known in the art (Schaffer, Annual Reports in Medicinal Chemistry, 45:55-70, 2010).
Plasma pharmacokinetic parameters were determined following oral (PO) administration of further compounds essentially as described in Example 28 with the results shown in Table 6.

Another data set has as its target T1, A2A receptor (Homo sapiens, UniProt P29274).
T1 construct: purchased
Kind of data set: Radioligand receptor binding assay, A2A receptor. Conditions: cell membranes overexpressing A2A receptor, read-out: Potency Ki A2A. How it is done: (§2) Using conventional receptor binding assay techniques, Compounds 1-24 were assayed to determine binding activity at the A2A, A1, and A3 receptors with the results shown in Table 7.
(§3) Receptor binding affinity of Compounds 1-24 was measured using radioligand binding assays using commercially obtained cell membranes prepared from cell lines overexpressing the A2A, A1, or A3 receptors. Briefly, cell membrane preparations from cells expressing the specific receptor were mixed with the appropriate [^3H]-labeled tracer for the specific receptor and the test compound or a known inhibitor of receptor-ligand binding. Following 60 min incubation at room temperature to allow receptor-ligand complex formation, the complexes were collected by filtration, washed with 50 mM Tris HCl (pH 7.5) to remove radioligand that was not receptor-bound, and the remaining radioactivity determined by liquid scintillation counting. Specific radioligand binding was calculated for each test compound concentration and IC50 values were determined by non-linear, regression analysis. Inhibition constants (Ki) were calculated using the equation of Cheng and Prusoff using the observed IC50 of the tested compound, the concentration of radioligand employed in the assay and the experimentally determined values for the Kd of the ligand.

Another data set addresses T2, A1 receptor (Homo sapiens, UniProt P30542).
T2 construct: purchased
T2 sequence (P30542 1-326): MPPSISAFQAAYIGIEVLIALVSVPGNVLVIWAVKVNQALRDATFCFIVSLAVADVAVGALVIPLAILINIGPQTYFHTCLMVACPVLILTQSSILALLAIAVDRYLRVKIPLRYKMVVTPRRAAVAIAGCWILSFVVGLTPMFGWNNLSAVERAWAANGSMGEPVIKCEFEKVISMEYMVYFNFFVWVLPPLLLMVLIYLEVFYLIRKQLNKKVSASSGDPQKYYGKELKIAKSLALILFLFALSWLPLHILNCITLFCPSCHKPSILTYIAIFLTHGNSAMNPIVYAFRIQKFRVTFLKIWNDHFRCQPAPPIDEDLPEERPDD
Kind of data set: Radioligand receptor binding assay, A1 receptor. Conditions: cell membranes overexpressing A1 receptor, read-out: Potency Ki A1. How it is done: as §2, §3

Setting [3] is: male, Sprague-Dawley, plasma, 2.5 mg/kg, Table 6, oral (PO) administration essentially as described in Example 28.
Setting [4] is: male, Sprague-Dawley, plasma, intravenous, 0.5 mg/kg, Table 6, essentially as described in Example 28.
[5] abbreviates: male, Sprague-Dawley, plasma, po, 2.5 mg/kg, Table 6, oral (PO) administration essentially as described in Example 28.
The mark [6] stands for this setting: male, Sprague-Dawley, plasma, iv, 0.5 mg/kg, IV 0.5 mg/kg, injectable water.
Where [7] appears, read: male, Sprague-Dawley, plasma, oral, 2.5 mg/kg, Table 2 summary of Example 27, values marked 1 are the average of experiments.
[8] abbreviates: male, Sprague-Dawley, plasma, po, 2.5 mg/kg, PO 2.5 mg/kg via gavage, injectable water.

T1 sequence (P29274 whole entry): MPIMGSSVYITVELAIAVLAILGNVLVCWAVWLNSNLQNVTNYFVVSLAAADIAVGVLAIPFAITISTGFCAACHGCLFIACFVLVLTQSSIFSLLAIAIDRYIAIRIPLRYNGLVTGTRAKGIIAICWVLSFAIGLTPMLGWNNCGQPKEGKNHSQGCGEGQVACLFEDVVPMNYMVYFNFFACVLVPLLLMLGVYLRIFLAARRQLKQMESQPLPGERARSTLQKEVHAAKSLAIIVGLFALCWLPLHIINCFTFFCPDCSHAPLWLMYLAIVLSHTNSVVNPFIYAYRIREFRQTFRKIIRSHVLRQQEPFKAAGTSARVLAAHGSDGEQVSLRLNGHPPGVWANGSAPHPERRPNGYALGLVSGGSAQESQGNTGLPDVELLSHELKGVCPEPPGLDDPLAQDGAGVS

Consider `COCCOc1ccc(N2CCN(CCN(C)c3cc4nc(-c5ncco5)nn4c(N)n3)CC2)c(Cl)c1` [Compound 15, N^7-(2-{4-[2-chloro-4-(2-methoxyethoxy)phenyl]piperazin-1-yl}ethyl)-N^7-methyl-2-(1,3-oxazol-2-yl)[1,2,4]triazolo[1,5-c]pyrimidine-5,7-diamine], for which, in data set [1] (setting [3]), the AUC was found to be 1160 ng·h/mL. For the same molecule, in data set [1] (setting [4]), the clearance was 20 mL/min/kg. For the same molecule, in data set [1] (setting [5]), the bioavailability is 57%. Also, the half-life in data set [1] (male, Sprague-Dawley, plasma, Table 6, printed in the CL column, read-out: t½ (converted)) was 1.2 h. In addition, the Kp at 1 h in data set [2] (oral, 2.5 mg/kg, Table 6) amounted to 0.05. The figures for the Ki on A2A receptor and on A1 receptor were 2.3 nM and 3940 nM, respectively.
In data set [1] (male, Sprague-Dawley, plasma, intravenous, 0.5 mg/kg, Table 2 summary of Example 27, values marked 1 are the average of experiments), `COCCOc1cnc(N2CCN(CCN(C)c3cc4nc(-c5ncco5)nn4c(N)n3)CC2)c(C(F)(F)F)c1` [Compound 19, N^7-(2-{4-[5-(2-methoxyethoxy)-3-(trifluoromethyl)pyridin-2-yl]piperazin-1-yl}ethyl)-N^7-methyl-2-(1,3-oxazol-2-yl)[1,2,4]triazolo[1,5-c]pyrimidine-5,7-diamine] registered a clearance of 7 mL/min/kg. For the same molecule, in data set [1] (setting [6]), the AUC(0-inf) worked out at 1230 ng·h/mL, the AUC(0-t) was 1220 ng·h/mL, the MRT last was 1.48 h and the clearance was 6.85 mL/min/kg. Further, in data set [1] (setting [6]), the maximum concentration (Cmax) is 1020 ng/mL and the time of peak concentration (Tmax) was found to be 0.033 h. Further, the Vd in data set [1] (male, Sprague-Dawley, plasma, iv, 0.5 mg/kg, IV 0.5 mg/kg, injectable water, read-out: Vss obs) came out at 0.635 L/kg. For the same molecule, in data set [1] (setting [7]), the AUC is 4980 ng·h/mL and the bioavailability came out at 83%. In data set [1] (setting [8]), the AUC(0-inf) is 5050 ng·h/mL, the AUC(0-t) stood at 4980 ng·h/mL, the mean residence time (MRT last) turned out to be 2.65 h and the Cmax was found to be 1300 ng/mL. In addition, the Tmax in data set [1] (setting [8]) is 1.25 h. In data set [1] (IV), the “Total clearance as % liver blood flow” value is roughly 10 % liver blood flow. In data set [1] (IV 0.5 mg/kg, injectable water, 0.5 mg/kg), this molecule displayed an MRTlast of 1.4825 h. The molecule further registered a CL in data set [1] (PO 2.5 mg/kg row of Table 3) of 9.05 mL/min/kg. In data set [1] (PO 2.5 mg/kg vs IV 0.5 mg/kg), the F was 82.7%. Further, the Kp at 1 h in data set [2] (Table 2) is 0.01. For the same molecule, the Ki on A2A receptor worked out at 4 nM. Moreover, on A1 receptor, the Ki came out at 16000 nM.
`[2H]C([2H])([2H])OC([2H])([2H])C([2H])([2H])Oc1ccc(N2CCN(CCN(c3cc4nc(-c5ncco5)nn4c(N)n3)C([2H])([2H])[2H])CC2)cc1` [Compound 18, N^7-(^2H3)methyl-N^7-(2-{4-[4-({2-[(^2H3)methyloxy](^2H4)ethyl}oxy)phenyl]piperazin-1-yl}ethyl)-2-(1,3-oxazol-2-yl)[1,2,4]triazolo[1,5-c]pyrimidine-5,7-diamine] had an AUC in data set [1] (setting [3]) of 900 ng·h/mL. The clearance in data set [1] (setting [4]) was found to be 33 mL/min/kg. This molecule displayed a bioavailability in data set [1] (setting [5]) of 71%. Further, the Kp at 1 h in data set [2] (oral, 2.5 mg/kg, Table 6) turned out to be 0.09. Further, the Ki was 8 nM at A2A receptor and greater than 100000 nM at A1 receptor.
Regarding `[2H]C([2H])([2H])OCCOc1cnc(N2CCN(CCN(C)c3cc4nc(-c5ncco5)nn4c(N)n3)CC2)c(F)c1` [Compound 11, N^7-{2-[4-(3-fluoro-5-{2-[(^2H3)methyloxy]ethoxy}pyridin-2-yl)piperazin-1-yl]ethyl}-N^7-methyl-2-(1,3-oxazol-2-yl)[1,2,4]triazolo[1,5-c]pyrimidine-5,7-diamine], the AUC in data set [1] (setting [3]) is 708 ng·h/mL. Moreover, the clearance in data set [1] (setting [4]) came out at 30 mL/min/kg. The bioavailability in data set [1] (setting [5]) was 63%. For the same molecule, the Ki is 2.3 nM on A2A receptor and 16900 nM at A1 receptor.
Regarding `COCCOc1ccc(N2CCN(CCNc3cc4nc(-c5ncco5)nn4c(N)n3)CC2)cc1` [Compound 24, N^7-(2-{4-[4-(2-methoxyethoxy)phenyl]piperazin-1-yl}ethyl)-2-(1,3-oxazol-2-yl)[1,2,4]triazolo[1,5-c]pyrimidine-5,7-diamine], the AUC in data set [1] (setting [3]) came to 1070 ng·h/mL. For the same molecule, the clearance in data set [1] (setting [4]) came out at 28 mL/min/kg. Besides, in data set [1] (setting [5]), the bioavailability was 70%. The Kp at 1 h in data set [2] (oral, 2.5 mg/kg, Table 6) was found to be 0.11. The Ki on A2A receptor is 43 nM; on A1 receptor, greater than 10000 nM.
`[2H]C([2H])(N1CCN(c2ccc(OCCOC)cc2)CC1)C([2H])([2H])N(C)c1cc2nc(-c3ncco3)nn2c(N)n1` [Compound 9, N^7-[2-{4-[4-(2-methoxyethoxy)phenyl]piperazin-1-yl}(^2H4)ethyl]-N^7-methyl-2-(1,3-oxazol-2-yl)[1,2,4]triazolo[1,5-c]pyrimidine-5,7-diamine] returned an AUC in data set [1] (setting [3]) of 1170 ng·h/mL. The molecule further returned a clearance in data set [1] (setting [4]) of 23 mL/min/kg. Also, the bioavailability in data set [1] (setting [5]) came to 65%. For the same molecule, the Kp at 1 h in data set [2] (oral, 2.5 mg/kg, Table 6) came out at 0.04. The Ki was 6 nM on A2A receptor and greater than 4000 nM at A1 receptor.
